Measurements taken from PMC12344671 (Journal of Enzyme Inhibition and Medicinal Chemistry, 2025).

Columns and labels:
[1] = biological target: mDUSP-H1 (DUSP-H1 from monkeypox virus) (Monkeypox virus, UniProt A0A7H0DN78); assay: biochemical; format: biochemical
normal human cell lines = conditions: cited from earlier work
HEK293 = conditions: cited from earlier work
[2] = system: human dermal fibroblasts (HDF); conditions: cited from earlier work

Chain of mDUSP-H1 (DUSP-H1 from monkeypox virus) (A0A7H0DN78 whole entry, looked up): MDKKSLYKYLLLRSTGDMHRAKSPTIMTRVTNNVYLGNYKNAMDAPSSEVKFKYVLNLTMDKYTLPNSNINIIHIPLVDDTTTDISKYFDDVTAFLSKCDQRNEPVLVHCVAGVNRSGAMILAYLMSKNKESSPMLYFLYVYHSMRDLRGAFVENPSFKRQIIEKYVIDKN

SMILES	mDUSP-H1 reactivity compared to the DMSO control [1]	IC50 [1] [µM]	other results
O=c1c(O)c(-c2cc(O)c(O)c(O)c2)oc2cc(O)cc(O)c12 [Myricetin]	significantly reduced reactivity		IC50 (normal human cell lines): > 100 µM; IC50 (HEK293): > 100 µM; IC50 [2]: > 100 µM
C[C@@H]1O[C@@H](Oc2c(-c3ccc(O)c(O)c3)oc3cc(O)cc(O)c3c2=O)[C@H](O)[C@H](O)[C@H]1O [Quercitrin]	relatively unchanged		inhibitory activity against mDUSP-H1 (in words) [1]: minimal inhibition
O=C(O[C@@H]1Cc2c(O)cc(O)cc2O[C@@H]1c1cc(O)c(O)c(O)c1)c1cc(O)c(O)c(O)c1 [(−)-Epigallocatechin gallate]	significantly reduced reactivity	14 ± 0.35	
COc1ccc(-c2cc(=O)c3c(O)c(OC)c(O[C@@H]4O[C@H](CO[C@@H]5O[C@@H](C)[C@H](O)[C@@H](O)[C@H]5O)[C@@H](O)[C@H](O)[C@H]4O)cc3o2)cc1 [Pectolinarin]	relatively unchanged		
Oc1cc(O)c2c(c1)O[C@@H](c1cc(O)c(O)c(O)c1)[C@H](O)C2 [(−)-Gallocatechin]	significantly reduced reactivity	9.56 ± 0.32	IC50 (normal human cell lines): > 100 µM; non-toxic concentration (normal human cell lines): ≤ 100 µM
COc1ccc(-c2cc(=O)c3c(O)cc(O)cc3o2)cc1O [Diosmetin]	relatively unchanged		inhibitory activity against mDUSP-H1 (in words) [1]: no significant inhibitory activity
O=c1cc(-c2ccccc2)oc2cc(O)c(O)c(O)c12 [Baicalein]	significantly reduced reactivity	11.2 ± 0.14	
C[C@@H]1O[C@@H](O[C@H]2[C@H](Oc3cc(O)c4c(c3)O[C@H](c3ccc(O)cc3)CC4=O)O[C@H](CO)[C@@H](O)[C@@H]2O)[C@H](O)[C@H](O)[C@H]1O [Naringin]	relatively unchanged		inhibitory activity against mDUSP-H1 (in words) [1]: little to no activity
O=c1cc(-c2ccc(O)cc2)oc2c(-c3c(O)cc(O)c4c(=O)cc(-c5ccc(O)cc5)oc34)c(O)cc(O)c12 [Cupressuflavone]	significantly reduced reactivity	11.1 ± 0.18	
COc1cc2oc(-c3ccc(O)c(O)c3)cc(=O)c2c(O)c1OC [Cirsiliol]	relatively unchanged		
O=c1c(O)c(-c2ccc(O)cc2)oc2c(O)c(O)cc(O)c12 [Herbacetin]	significantly reduced reactivity	12.71 ± 0.08	
